Activity calls are given as the source filed them. The rule behind the calls is not given here. Square brackets hold non-standard residues; d marks the D form. Peptide text beside a SMILES is read from it. Lys(N3) = [N-]=[N+]=NCCCC[C@H](N)C(=O)O; pS = N[C@@H](COP(=O)(O)O)C(=O)O
Experiments:
[1] = target: T1, Histone acetyltransferase KAT2B (Homo sapiens, UniProt Q92831); experiment: Inhibition of PCAF (unknown origin) using histone H3 derived peptide as substrate at 10^-6 to 10^-3 M after 20 mins by fluorescence assay
Target sequence in this assay (Q92831 whole entry, looked up): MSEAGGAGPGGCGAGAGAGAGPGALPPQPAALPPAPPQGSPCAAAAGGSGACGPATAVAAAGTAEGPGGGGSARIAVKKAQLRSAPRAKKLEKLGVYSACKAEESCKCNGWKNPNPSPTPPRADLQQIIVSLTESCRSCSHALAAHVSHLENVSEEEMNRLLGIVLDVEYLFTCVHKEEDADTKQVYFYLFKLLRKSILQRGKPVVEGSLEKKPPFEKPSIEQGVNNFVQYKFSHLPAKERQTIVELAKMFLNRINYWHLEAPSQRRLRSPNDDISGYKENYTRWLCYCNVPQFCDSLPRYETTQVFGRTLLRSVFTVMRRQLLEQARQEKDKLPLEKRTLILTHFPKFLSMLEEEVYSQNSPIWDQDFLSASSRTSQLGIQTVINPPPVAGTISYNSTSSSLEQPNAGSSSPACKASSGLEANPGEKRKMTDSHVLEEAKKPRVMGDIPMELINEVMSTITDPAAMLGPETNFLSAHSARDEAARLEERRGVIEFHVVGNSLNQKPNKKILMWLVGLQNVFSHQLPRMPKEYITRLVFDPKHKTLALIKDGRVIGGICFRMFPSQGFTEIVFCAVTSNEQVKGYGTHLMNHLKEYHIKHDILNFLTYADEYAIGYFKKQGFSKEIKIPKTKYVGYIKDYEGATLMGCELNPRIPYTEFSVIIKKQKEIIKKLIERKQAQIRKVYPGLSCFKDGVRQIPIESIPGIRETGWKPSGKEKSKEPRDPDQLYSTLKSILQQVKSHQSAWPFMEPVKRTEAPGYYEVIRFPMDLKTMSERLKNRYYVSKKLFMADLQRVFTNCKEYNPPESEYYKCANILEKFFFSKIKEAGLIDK

[2] = Drug degradation in NEB buffer at 1 mg after 10 to 120 mins by RP-HPLC analysis; type: physicochemical
[3] = Drug degradation in NEB buffer assessed as Protein phosphatase 1 (unknown origin)-mediated H3-Ser-CoA formation at 1 mg after 30 mins by RP-HPLC analysis; type: ADME, Homo sapiens; settings: 0.5 h
[4] = target: T1, Histone acetyltransferase KAT2B; experiment: Competitive inhibition of PCAF (unknown origin) using histone H3 derived peptide as substrate after 20 mins by fluorescence assay
Target sequence in this assay (Q92831 whole entry): as the sequence (Q92831 whole entry, looked up) above

[5] = target: T1, Histone acetyltransferase KAT2B; experiment: Inhibition of PCAF (unknown origin) using histone H3 derived peptide as substrate after 20 mins by fluorescence assay
Target sequence in this assay (Q92831 whole entry): as the sequence (Q92831 whole entry, looked up) above

[6] = target: Serine/threonine-protein kinase pim-1 (Homo sapiens, UniProt P11309); experiment: Drug degradation in NEB buffer assessed as PIM1 kinase (unknown origin)-mediated H3-pSer-CoA formation at 1 mg after 60 mins by RP-HPLC analysis; type: ADME; settings: 1 h
Serine/threonine-protein kinase pim-1, sequence (P11309 whole entry): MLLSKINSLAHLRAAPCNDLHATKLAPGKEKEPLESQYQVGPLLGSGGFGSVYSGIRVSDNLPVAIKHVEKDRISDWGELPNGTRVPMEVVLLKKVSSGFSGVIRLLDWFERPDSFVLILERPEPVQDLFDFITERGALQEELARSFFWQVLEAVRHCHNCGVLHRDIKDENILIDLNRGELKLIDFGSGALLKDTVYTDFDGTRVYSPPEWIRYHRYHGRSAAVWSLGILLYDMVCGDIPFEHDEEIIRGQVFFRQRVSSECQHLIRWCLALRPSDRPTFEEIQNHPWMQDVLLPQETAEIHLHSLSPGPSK

| inhibition [1] | Stability [2] | Drug degradation [3] | IC50 [4] [µM] | IC50 [5] [µM] | Drug degradation [6] | Compound |
| --- | --- | --- | --- | --- | --- | --- |
| inactive | – | – | – | – | – | CC(=O)N[C@@H](C)C(=O)N[C@@H](CCCNC(=N)N)C(=O)N[C@@H](CCCCN)C(=O)N[C@@H](CO)C(=O)N[C@H](C(=O)NCC(=O)NCC(=O)N[C@@H](CCCCN=[N+]=[N-])C(=O)N[C@@H](C)C(=O)N1CCC[C@H]1C(=O)N[C@@H](CCCNC(=N)N)C(=O)N[C@@H](CCCCN)C(N)=O)[C@@H](C)O (Ac-ARKSTGG[Lys(N3)]APRK-NH2) |
| – | Unstable | Active | 33 | 1.7 | – | CC(=O)N[C@@H](C)C(=O)N[C@@H](CCCNC(=N)N)C(=O)N[C@@H](CCCCN)C(=O)N[C@@H](COP(=O)(O)O)C(=O)N[C@H](C(=O)NCC(=O)NCC(=O)N[C@@H](CCCCn1cc(CSCCNC(=O)CCNC(=O)[C@@H](O)C(C)(C)COP(=O)(O)OP(=O)(O)OC[C@H]2O[C@@H](n3cnc4c(N)ncnc43)[C@H](O)[C@@H]2OP(=O)(O)O)nn1)C(=O)N[C@@H](C)C(=O)N1CCC[C@H]1C(=O)N[C@@H](CCCNC(=N)N)C(=O)N[C@@H](CCCCN)C(N)=O)[C@@H](C)O |
| inactive | – | – | – | – | – | CC(=O)N[C@@H](C)C(=O)N[C@@H](CCCNC(=N)N)C(=O)N[C@@H](CCCCN)C(=O)N[C@@H](COP(=O)(O)O)C(=O)N[C@H](C(=O)NCC(=O)NCC(=O)N[C@@H](CCCCN=[N+]=[N-])C(=O)N[C@@H](C)C(=O)N1CCC[C@H]1C(=O)N[C@@H](CCCNC(=N)N)C(=O)N[C@@H](CCCCN)C(N)=O)[C@@H](C)O (Ac-ARK[pS]TGG[Lys(N3)]APRK-NH2) |
| inactive | – | – | – | – | – | C#CCSCCNC(=O)CCNC(=O)[C@@H](O)C(C)(C)COP(=O)(O)OP(=O)(O)OC[C@H]1O[C@@H](n2cnc3c(N)ncnc32)[C@H](O)[C@@H]1OP(=O)(O)O |
| – | Unstable | – | 117 | 2.8 | Active | CC(=O)N[C@@H](C)C(=O)N[C@@H](CCCNC(=N)N)C(=O)N[C@@H](CCCCN)C(=O)N[C@@H](CO)C(=O)N[C@H](C(=O)NCC(=O)NCC(=O)N[C@@H](CCCCn1cc(CSCCNC(=O)CCNC(=O)[C@@H](O)C(C)(C)COP(=O)(O)OP(=O)(O)OC[C@H]2O[C@@H](n3cnc4c(N)ncnc43)[C@H](O)[C@@H]2OP(=O)(O)O)nn1)C(=O)N[C@@H](C)C(=O)N1CCC[C@H]1C(=O)N[C@@H](CCCNC(=N)N)C(=O)N[C@@H](CCCCN)C(N)=O)[C@@H](C)O |

— ChEMBL document CHEMBL3098069, “Azide-alkyne cycloaddition affording enzymatically tunable bisubstrate based inhibitors of histone acetyltransferase PCAF” (Bioorg Med Chem Lett, 2014)
